Experimental data: ChEMBL document CHEMBL5046290, “Design, Synthesis, and Preclinical Profiling of GSK3739936 (BMS-986180), an Allosteric Inhibitor of HIV-1 Integrase with Broad-Spectrum Activity toward 124/125 Polymorphs” (J Med Chem, 2022)

Columns and labels:
[1] = Displacement of [3H](S)-2-(tert-butoxy)-2-(2-methyl-4-(p-tolyl)quinolin-3-yl)acetic acid from LEDGF-binding site of recombinant T124/T125 polymorphic HIV1 integrase by LIDIA assay; set-up: species or system Human immunodeficiency virus 1
[2] = tested on: Human immunodeficiency virus 1; test: Antiviral activity against recombinant HIV1 NLRep-Rluc harbouring polymorphic T124/T125 integrase infected in human MT-2 cells assessed as inhibition of virus growth in presence of fetal bovine serum by measuring luciferase activity after 5 days; format: functional, organism-based, MT2
[3] = Cytotoxicity against human MT2 cells assessed as cell viability measured after 4 days by XTT assay; format: toxicity, cell-based; conditions: time 4 day
[4] = Clearance in Sprague-Dawley rat at 1 mg/kg, iv by LC-MS/MS analysis; format: ADME, organism-based; conditions: in vivo
[5] = tested on: Human immunodeficiency virus 1; test: Antiviral activity against recombinant HIV1 NLRep-Rluc harbouring polymorphic AT infected in human MT-2 cells assessed as inhibition of virus growth in presence of fetal bovine serum by measuring luciferase activity after 5 days; format: functional, organism-based; conditions: Human immunodeficiency virus 1, NLRep, MT2, 120 h
[6] = tested on: Human immunodeficiency virus 1; test: Antiviral activity against recombinant HIV1 NLRep-Rluc harbouring polymorphic NA infected in human MT-2 cells assessed as inhibition of virus growth in presence of fetal bovine serum by measuring luciferase activity after 5 days; format: functional, organism-based; conditions: Human immunodeficiency virus 1, NLRep, MT2, 120 h
[7] = Metabolic stability in human liver microsome assessed half life at 0.5 uM by LC-MS/MS analysis; format: ADME; conditions: liver microsomes
[8] = Metabolic stability in rat liver microsome assessed half life at 0.5 uM by LC-MS/MS analysis; format: ADME; conditions: liver microsomes
[9] = tested on: Human immunodeficiency virus 1; test: Antiviral activity against recombinant HIV1 NLRep-Rluc harbouring polymorphic NT infected in human MT-2 cells assessed as inhibition of virus growth in presence of fetal bovine serum by measuring luciferase activity after 5 days; format: functional, organism-based; conditions: Human immunodeficiency virus 1, NLRep, MT2, 120 h
[10] = tested on: Human immunodeficiency virus 1; test: Antiviral activity against recombinant HIV1 NLRep-Rluc harbouring polymorphic TA infected in human MT-2 cells assessed as inhibition of virus growth in presence of fetal bovine serum by measuring luciferase activity after 5 days; format: functional, organism-based; conditions: Human immunodeficiency virus 1, NLRep, MT2, 120 h
[11] = tested on: Human immunodeficiency virus 1; test: Antiviral activity against recombinant HIV1 NLRep-Rluc harbouring polymorphic AA infected in human MT-2 cells assessed as inhibition of virus growth in presence of fetal bovine serum by measuring luciferase activity after 5 days; format: functional, organism-based; conditions: Human immunodeficiency virus 1, NLRep, MT2, 120 h
[12] = tested on: Human immunodeficiency virus 1; test: Antiviral activity against recombinant HIV1 A128T-resitant mutant […] infected in human MT-2 cells assessed as inhibition of virus growth in presence of fetal bovine serum by measuring luciferase activity after 5 days; format: functional, organism-based; conditions: Human immunodeficiency virus 1, MT2, 120 h
[13] = tested on: Human immunodeficiency virus 1; test: Anti retroviral activity against HIV-1 NL4-3 harboring at TA polymorph infected in human MT4 cells by CellTitre-Glo luminescent reagent based assay; format: functional, organism-based; conditions: Human immunodeficiency virus 1, NL4-3, MT4
[14] = tested on: Human immunodeficiency virus 1; test: Anti retroviral activity against HIV-1 NL4-3 harboring at TT polymorph infected in human MT4 cells by CellTitre-Glo luminescent reagent based assay; format: functional, organism-based; conditions: Human immunodeficiency virus 1, NL4-3, MT4
[15] = tested on: Human immunodeficiency virus 1; test: Anti retroviral activity against HIV-1 NL4-3 harboring at AA polymorph infected in human MT4 cells by CellTitre-Glo luminescent reagent based assay; format: functional, organism-based; conditions: Human immunodeficiency virus 1, NL4-3, MT4
[16] = tested on: Human immunodeficiency virus 1; test: Anti retroviral activity against HIV-1 NL4-3 harboring at AT polymorph infected in human MT4 cells by CellTitre-Glo luminescent reagent based assay; format: functional, organism-based; conditions: Human immunodeficiency virus 1, NL4-3, MT4
[17] = Human immunodeficiency virus 1, NLRep, MT2, 120 h

SMILES | IC50 [1] | EC50 [2, 17] | CC50 at 96 h [3] | clearance [4] | half-life at 0.5 µM [7] | half-life at 0.5 µM [8] | further results
Cc1nc(C)c([C@H](OC(C)(C)C)C(=O)O)c(N2CCC(C)(C)CC2)c1-c1ccc(Cc2ccccc2)cc1 | 0.0134 µM | 0.0122 µM | ≥ 20 µM |  |  |  | 
Cc1ncsc1CCOc1ccc(-c2c(C)nc(C)c([C@H](OC(C)(C)C)C(=O)O)c2N2CCC(C)(C)CC2)cc1 | 0.0127 µM | 0.0008 µM | ≥ 25 µM | 69 mL/min/kg | 1.5 h | > 2 h | EC50 [5]: 0.001 µM; EC50 [6]: 0.0013 µM; EC50 [9]: 0.001 µM; EC50 [10]: 0.00075 µM; EC50 [11]: 0.0007 µM; EC50 [12]: 0.107 µM
COc1ccc(CCOc2ccc(-c3c(C)nc(C)c([C@H](OC(C)(C)C)C(=O)O)c3N3CCC(C)(C)CC3)cc2)cc1 | 0.0132 µM | 0.0039 µM | ≥ 33.5 µM | 13.4 mL/min/kg | > 2 h | > 2 h | 
Cc1nc(C)c([C@H](OC(C)(C)C)C(=O)O)c(N2CCC(C)(C)CC2)c1-c1ccc(OCCc2ccc(F)cc2F)cc1 | 0.0116 µM | 0.0036 µM | ≥ 33.5 µM | 9 mL/min/kg | 1.08 h | > 2 h | 
Cc1ccc(CCOc2ccc(-c3c(C)nc(C)c([C@H](OC(C)(C)C)C(=O)O)c3N3CCC(C)(C)CC3)cc2)cc1 | 0.0155 µM | 0.0147 µM | ≥ 33.5 µM |  |  |  | 
Cc1nc(C)c([C@H](OC(C)(C)C)C(=O)O)c(N2CCC(C)(C)CC2)c1-c1ccc(NCCc2ccc(F)cc2)cc1 | 0.018 µM | 0.0054 µM | ≥ 32 µM | 12 mL/min/kg | 0.683 h | 1.83 h | 
Cc1noc(C)c1CCOc1ccc(-c2c(C)nc(C)c([C@H](OC(C)(C)C)C(=O)O)c2N2CCC(C)(C)CC2)cc1 | 0.0114 µM | 0.0015 µM | ≥ 25 µM | 58.9 mL/min/kg | 0.467 h | 1.32 h | 
Cc1nc(C)c([C@H](OC(C)(C)C)C(=O)O)c(N2CCC(C)(C)CC2)c1-c1ccc(SCCc2ccc(F)cc2)cc1 | 0.098 µM | 0.0156 µM | ≥ 32 µM |  | > 2 h | > 2 h | 
Cc1nc(C)c([C@H](OC(C)(C)C)C(=O)O)c(N2CCC(C)(C)CC2)c1-c1ccc(Oc2ccccc2)cc1 | 0.0535 µM | 0.0375 µM | ≥ 20 µM |  |  |  | 
Cc1nc(C)c([C@H](OC(C)(C)C)C(=O)O)c(N2CCC(C)(C)CC2)c1-c1ccccc1 | 0.0555 µM | 0.067 µM |  |  |  |  | 
Cc1nc(C)c([C@H](OC(C)(C)C)C(=O)O)c(N2CCC(C)(C)CC2)c1-c1ccc(OCCc2ccncc2)cc1 |  | 0.0006 µM | ≥ 25 µM |  |  |  | 
Cc1nc(C)c([C@H](OC(C)(C)C)C(=O)O)c(N2CCC(C)(C)CC2)c1-c1ccc(OCCc2ccc(Cl)cc2)cc1 | 0.0304 µM | 0.012 µM | ≥ 33.5 µM |  |  |  | 
Cc1nc(C)c([C@H](OC(C)(C)C)C(=O)O)c(N2CCC(C)(C)CC2)c1-c1ccc(OCCc2ccc(F)c(F)c2)cc1 | 0.0067 µM | 0.0027 µM | ≥ 33.5 µM | 5.8 mL/min/kg | > 2 h | 0.85 h | EC50 [5]: 0.0027 µM; EC50 [6]: 0.007 µM; EC50 [9]: 0.0021 µM; EC50 [10]: 0.0018 µM; EC50 [11]: 0.0037 µM; EC50 [12]: 0.255 µM
COc1cccc(CCOc2ccc(-c3c(C)nc(C)c([C@H](OC(C)(C)C)C(=O)O)c3N3CCC(C)(C)CC3)cc2)c1 | 0.0159 µM | 0.0017 µM | ≥ 33.5 µM |  | > 2 h | > 2 h | 
Cc1nc(C)c([C@H](OC(C)(C)C)C(=O)O)c(N2CCC(C)(C)CC2)c1-c1ccc(OCCCc2ccc(F)cc2)cc1 | 0.0355 µM | 0.0119 µM | ≥ 32 µM |  | > 2 h | > 2 h | 
Cc1sc(-c2ccncc2)c(C2=CCC(C)(C)CC2)c1[C@H](OC(C)(C)C)C(=O)O |  |  |  |  |  |  | EC50 [13]: 1.6 µM; EC50 [14]: 0.031 µM; EC50 [15]: 1.5 µM; EC50 [16]: 14 µM

SMILES | IC50 [1] | EC50 [2, 17] | CC50 at 96 h [3] | clearance [4] | half-life at 0.5 µM [7] | half-life at 0.5 µM [8] | further results
Cc1nc(C)c([C@H](OC(C)(C)C)C(=O)O)c(N2CCC(C)(C)CC2)c1-c1ccc(OCCc2ccccn2)cc1 | 0.0167 µM | 0.0009 µM | ≥ 25 µM |  | 0.5 h | 1.02 h | 
Cc1cc(CCOc2ccc(-c3c(C)nc(C)c([C@H](OC(C)(C)C)C(=O)O)c3N3CCC(C)(C)CC3)cc2)ccc1F | 0.0211 µM | 0.0048 µM | ≥ 33.5 µM | 7.8 mL/min/kg | > 2 h | > 2 h | 
Cc1nc(CCOc2ccc(-c3c(C)nc(C)c([C@H](OC(C)(C)C)C(=O)O)c3N3CCC(C)(C)CC3)cc2)cs1 | 0.0326 µM | 0.005 µM | ≥ 25 µM |  | 0.683 h | 1.75 h | 
Cc1ccc(CCOc2ccc(-c3c(C)nc(C)c([C@H](OC(C)(C)C)C(=O)O)c3N3CCC(C)(C)CC3)cc2)s1 | 0.0492 µM | 0.0044 µM | ≥ 25 µM |  | > 2 h | > 2 h | 
Cc1nc(C)c([C@H](OC(C)(C)C)C(=O)O)c(N2CCC(C)(C)CC2)c1-c1ccc(OCCc2cc(F)c(F)cc2F)cc1 | 0.0181 µM | 0.0033 µM | ≥ 33.5 µM | 8.1 mL/min/kg | > 2 h | > 2 h | 
Cc1nc(C)c(CCOc2ccc(-c3c(C)nc(C)c([C@H](OC(C)(C)C)C(=O)O)c3N3CCC(C)(C)CC3)cc2)s1 | 0.0117 µM | 0.0011 µM | ≥ 25 µM | 30.1 mL/min/kg | 0.917 h | > 2 h | 
Cc1nc(C)c([C@H](OC(C)(C)C)C(=O)O)c(N2CCC(C)(C)CC2)c1-c1ccc(-c2ccccc2)cc1 | 0.0307 µM | 0.0312 µM | ≥ 20 µM |  |  |  | 
Cc1nc(C)c([C@H](OC(C)(C)C)C(=O)O)c(N2CCC(C)(C)CC2)c1-c1ccc(OCCc2ccccc2)cc1 | 0.0094 µM | 0.0023 µM | ≥ 20 µM |  | > 2 h | > 2 h | 
Cc1nc(C)c([C@H](OC(C)(C)C)C(=O)O)c(N2CCC(C)(C)CC2)c1-c1ccc(CCCc2ccc(F)cc2)cc1 | 0.0733 µM | 0.0226 µM | ≥ 32 µM |  | > 2 h | > 2 h | 
Cc1nc(C)c([C@H](OC(C)(C)C)C(=O)O)c(N2CCC(C)(C)CC2)c1-c1ccc(OCc2ccccc2)cc1 | 0.0302 µM | 0.0113 µM | ≥ 20 µM |  |  |  | 
Cc1nc(C)c([C@H](OC(C)(C)C)C(=O)O)c(N2CCC(C)(C)CC2)c1-c1ccc(OCCc2cc(F)ccc2F)cc1 | 0.0147 µM | 0.0028 µM | ≥ 33.5 µM | 18.7 mL/min/kg |  |  | 
Cc1nc(C)c([C@H](OC(C)(C)C)C(=O)O)c(N2CCC(C)(C)CC2)c1-c1ccc(OCCc2cccnc2)cc1 | 0.0193 µM | 0.0013 µM | ≥ 25 µM |  | 0.367 h | 0.783 h | 
CCc1cccc(CC)c1-c1cc(-c2ccc3c4c(ccnc24)CCO3)c(C(OC(C)(C)C)C(=O)O)c(C)n1 (racemic) | 100 µM | 0.19 µM |  |  |  |  | 
Cc1nc(C)c([C@H](OC(C)(C)C)C(=O)O)c(N2CCC(C)(C)CC2)c1-c1ccc(OC2CCCC2c2ccc(F)cc2)cc1 (stereo in doubt; 39a) | 0.0355 µM |  | ≥ 32 µM |  |  |  | EC50 ([2]; mt2): 0.012 µM
Cc1nc(C)c([C@H](OC(C)(C)C)C(=O)O)c(N2CCC(C)(C)CC2)c1-c1ccc(OC2CCCC2c2ccc(F)cc2)cc1 (stereo in doubt; 39b) | 0.0177 µM |  |  |  |  |  | EC50 ([2]; mt2): 0.005 µM
Cc1nc(C)c([C@H](OC(C)(C)C)C(=O)O)c(N2CCC(C)(C)CC2)c1-c1ccc(OC2COCC2c2ccc(F)cc2)cc1 (stereo in doubt; 40a) | 0.0049 µM |  | ≥ 32 µM |  |  |  | EC50 ([2]; mt2): 0.002 µM
